We go through three molecules from patent US8039623B2, “Inhibitors of serine proteases, particularly HCV NS3-NS4A protease” (Vertex Pharmaceuticals Incorporated, priority 2003, dated 2011).

Sequence of HCV NS3-NS4A protease (tNS3 with KK4A) (P27958 1658-1711): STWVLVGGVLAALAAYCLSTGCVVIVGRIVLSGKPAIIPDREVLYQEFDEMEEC
Sequence of HCV NS3-NS4A protease (tNS3 with KK4A) (P27958 1027-1208): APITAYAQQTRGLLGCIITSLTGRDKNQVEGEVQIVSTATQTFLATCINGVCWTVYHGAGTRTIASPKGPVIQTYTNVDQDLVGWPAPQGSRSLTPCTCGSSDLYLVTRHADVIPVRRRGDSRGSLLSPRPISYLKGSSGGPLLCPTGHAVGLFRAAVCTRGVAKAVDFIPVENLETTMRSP

This test deals with HCV NS3-NS4A protease (tNS3 with KK4A) (Hepatitis C virus genotype 1a, UniProt P27958). Nature of the test: HCV Enzyme Assay Protocol (HPLC microbore separation of 5AB substrate and products). The test is classed as biochemical. The following applies: 25 nM tNS3, 25 μM KK4A, 25 μM 5AB substrate, 20 min at 30° C.; read-out: Ki range. The protocol:
HCV Enzyme Assay Protocol
HPLC Microbore method for separation of 5AB substrate and products
• NH2-Glu-Asp-Val-Val-(alpha)Abu-Cys-Ser-Met-Ser-Tyr-COOH
A stock solution of 20 mM 5AB (or concentration of your choice) was made in DMSO w/0.2M DTT. This was stored in aliquots at −20° C.
Buffer: 50 mM HEPES, pH 7.8; 20% glycerol; 100 mM NaCl
Total assay volume was 100 μL
The buffer, KK4A, DTT, and tNS3 were combined; distributed 78 μL each into wells of 96 well plate. This was incubated at 30° C. for ˜5-10 min.
2.5 μL of appropriate concentration of test compound was dissolved in DMSO (DMSO only for control) and added to each well. This was incubated at room temperature for 15 min.
Initiated reaction by addition of 20 μL of 250 μM 5 AB substrate (25 μM concentration is equivalent or slightly lower than the Km for 5 AB).
Incubated for 20 min at 30° C.
Terminated reaction by addition of 25 μL of 10% TFA
Transferred 120 μL aliquots to HPLC vials
Separated SMSY product from substrate and KK4A by the following method:
Microbore Separation Method:
Instrumentation: Agilent 1100
• Degasser G1322A • Binary pump G1312A • Autosampler G1313A • Column thermostated chamber G1316A • Diode array detector G1315A Column • Phenonex Jupiter; 5 micron C18; 300 angstroms; 150×2 mm; P/O • 00F-4053-B0 • Column thermostat: 40 C • Injection volume: 100 μL • Solvent A=HPLC grade water+0.1% TFA • Solvent B=HPLC grade acetonitrile+0.1% TFA
• Stop time: 17 min • Post-run time: 10 min.
As a reminder, the Ki is a measure of affinity in units of concentration, obtained from inhibition or displacement. As for `CCC[C@H](NC(=O)[C@@H]1CC2(CN1C(=O)[C@@H](NC(=O)[C@@H](NC(=O)c1cnccn1)C1CCCCC1)C(C)(C)C)SCCCS2)C(=O)NS(=O)(=O)c1ccccc1` [Compound 1], the Ki was greater than 5 µM. For `CCC[C@H](NC(=O)[C@@H]1C[C@@H](Oc2ccc(Cl)cn2)CN1C(=O)[C@@H](NC(=O)[C@@H](NC(=O)c1cnccn1)C1CCCCC1)C(C)(C)C)C(=O)NS(=O)(=O)c1ccccc1` [Compound 2] the value was greater than 5 µM; for `CCC[C@H](NC(=O)[C@@H]1CC2(CN1C(=O)[C@@H](NC(=O)[C@@H](NC(=O)c1[nH]c(C)c(C)c1C(C)=O)C1CCCCC1)C(C)(C)C)SCCCS2)C(=O)NS(=O)(=O)c1ccccc1` [Compound 3], 1 to 5 µM.
